Assay results: US8575135B2 (Gilead Sciences, Inc., priority 2011, dated 2013)
Where two headings read alike, the source gives them in different places.

Experiments:
Experiment in all cases: microbe, parasite or virus in culture
Details in all cases: Hepatitis C virus
[1] = system: stable HCV 1a RLuc replicon cells (genotype 1a H77 replicon); type: cell-based
[2] = system: NS5A chimeric genotype 1b Con1 replicon with genotype 4a ED43 strain NS5A gene; type: cell-based, HCV
[3] = system: 1a Pi-Rluc replicon with Q30R in genotype 1a NS5A; type: cell-based, HCV
Experimental: Antiviral potency (EC50) was determined using a Renilla luciferase (RLuc)-based HCV replicon reporter assay. […] To perform the assay for genotype 2a (with M31 present in NS5A) or 2b, NS5A chimeric genotype 2a JFH-1 replicons that encodes a RLuc-Neo reporter and either genotype 2a J6 strain NS5A gene or genotype 2b MD2b-1 strain NS5A gene (both with M31 present) respectively, were either transiently transfected (t) into Huh-Lunet cells or were established as stably replicating replicon cells (s) is provided. Either cells were dispensed into 384-well plates for EC50 assays. To perform the assay for genotype 3 and 4, NS5A chimeric genotype 1b Con1 replicons that encodes a Pi-RLuc reporter and either genotype 3a S52 strain NS5A gene or genotype 4a ED43 strain NS5A gene respectively, were transiently transfected (t) into Huh-Lunet cells, which were subsequently dispensed into 384-well plates. Compounds were dissolved in DMSO at a concentration of 10 mM and diluted in DMSO either manually or using an automated pipeting instrument. Serially 3-fold diluted compounds were either manually mixed with cell culture media and added to the seeded cells or directly added to the cells using an automated instrument. […] 72 hours later, cells were lysed and Renilla luciferase activity quantified as recommended by the manufacturer (Promega-Madison, Wis.). Non-linear regression was performed to calculate EC50 values.
To determine the antiviral potency (EC50) against resistance mutants, resistance mutations, including M28T, Q30R, Q30H, L31M, and Y93C in genotype 1a NS5A and Y93H in genotype 1b NS5A, were introduced individually into either 1a Pi-Rluc or 1b Pi-Rluc replicons by site directed mutagenesis. Replicon RNA of each resistant mutant was transiently transfected into Huh-7-derived cured-51 cells and antiviral potency was determined on these transfected cells as described above.

[4] = system: stable HCV 2a JFH-1 Rluc replicon cells (L31 present in NS5A); type: cell-based
[5] = system: NS5A chimeric genotype 2a JFH-1 replicon with genotype 2a J6 strain NS5A gene (M31 present); type: cell-based, HCV
[6] = system: NS5A chimeric genotype 1b Con1 replicon with genotype 3a S52 strain NS5A gene; type: cell-based, HCV
Method in brief: (§1)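 Con1-based 3a and 4a chimeras carried a Pi-RLuc reporter and were transiently transfected into Huh-Lunet cells; the JFH-1-based 2b chimera (RLuc-Neo) was used transiently or as stable replicon cells.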

[7] = system: NS5A chimeric genotype 2a JFH-1 replicon with genotype 2b MD2b-1 strain NS5A gene (M31 present); type: cell-based, HCV
Method in brief: as §1

SMILES	EC50 ([1]; read-out: 1a) [nM]	EC50 ([1]; read-out: 1a (nM)) [nM]	EC50 ([2]; read-out: 4a) [nM]	EC50 ([2]; read-out: 4a (s) (nM)) [nM]	EC50 ([2]; read-out: 4a (t) (nM)) [nM]	EC50 ([3]; read-out: 1a Q30R) [nM]	EC50 ([3]; read-out: 1a Q30R (nM)) [nM]	EC50 ([4]; read-out: 2a JFH) [nM]	EC50 ([4]; read-out: 2a JFH (nM)) [nM]	EC50 ([5]; read-out: 2a J6) [nM]	EC50 ([5]; read-out: 2a J6 (s) (nM)) [nM]	EC50 ([6]; read-out: 3a) [nM]	EC50 ([6]; read-out: 3a (nM)) [nM]	EC50 ([7]; read-out: 2b) [nM]	EC50 ([7]; read-out: 2b (s) (nM)) [nM]	EC50 ([5]; read-out: 2a Jb (t) (nM)) [nM]	EC50 ([7]; read-out: 2b (t) (nM)) [nM]
COC(=O)N[C@H](C(=O)N1CCC[C@H]1c1nc2c([nH]1)-c1cc3c(cc1CC2)-c1ccc(-c2cnc([C@@H]4CCCN4C(=O)[C@H](NC(=O)C4CC4)c4ccccc4)[nH]2)cc1CO3)C(C)C [Compound 494]	< 1	0.037	< 1	0.031	0.017	< 1	0.118	< 1	0.005	< 1	0.098	< 1	0.005	< 1	0.017		
COC[C@H]1C[C@@H](c2nc3ccc4cc5c(cc4c3[nH]2)OCc2cc(-c3cnc([C@@H]4CCCN4C(=O)[C@@H](NC(=O)OC)C(C)C)[nH]3)ccc2-5)N(C(=O)[C@@H](NC(=O)OC)C(C)C)C1 [Compound 495]	< 1	0.021	< 1	0.014	0.014	< 1	0.201	< 1	0.008	< 1	1.02	< 1	0.024	< 1	0.541	0.28	0.135
COC(=O)N[C@H](C(=O)N1CCC[C@H]1c1nc2ccc3cc4c(cc3c2[nH]1)OCc1cc(-c2cnc([C@@H]3CCCN3C(=O)[C@H](NC(=O)C3CC3)c3ccccc3)[nH]2)ccc1-4)C(C)C [Compound 498]	< 1	0.03	< 1	0.004	0.011	< 1	0.04	< 1	0.004	< 1	0.039	< 1	0.005	< 1	0.013	0.012	0.01
COC(=O)N[C@H](C(=O)N1CCC[C@H]1c1ncc(-c2ccc3c(c2)COc2cc4c(ccc5nc([C@@H]6C[C@H](C)CN6C(=O)[C@@H](NC(=O)OC)C(C)C)[nH]c54)cc2-3)[nH]1)C(C)C [Compound 526]	< 1	0.011	< 1	0.011	0.011	< 1	0.095	< 1	0.007	< 1	1.64	< 1	0.018	< 1	0.404	0.443	0.132
COC(=O)N[C@H](C(=O)N1[C@@H]2C[C@@H]2C[C@H]1c1nc2ccc3cc4c(cc3c2[nH]1)OCc1cc(-c2cnc([C@@H]3CCCN3C(=O)[C@H](NC(=O)OC)c3ccccc3)[nH]2)ccc1-4)C(C)C [Compound 536]	< 1	0.008	< 1	0.01	0.005	< 1	0.048	< 1	0.004	< 1	0.154	< 1	0.009	< 1	0.037	0.04	0.011
COC(=O)N[C@H](C(=O)N1CCC[C@H]1c1ncc(-c2ccc3c(c2)COc2cc4c(ccc5nc([C@@H]6CCCN6C(=O)[C@H](NC(=O)OC)c6ccccc6)[nH]c54)cc2-3)[nH]1)[C@@H](C)OC [Compound 588]	< 1	0.012	< 1		0.019	< 1	0.087	< 1	0.004	< 1	0.14	< 1	0.027	< 1	0.017	0.038	0.012
COC(=O)N[C@H](C(=O)N1C[C@@H](C)C[C@H]1c1ncc(-c2ccc3c(c2)COc2cc4c(ccc5nc([C@@H]6CC[C@H](C)N6C(=O)[C@@H](NC(=O)OC)C(C)C)[nH]c54)cc2-3)[nH]1)C(C)C [Example QG, Methyl {(2S)-1-[(2S,5S)-2-(9-{2-[(2S,4S)-1-{(2S)-2-[(methoxycarbonyl)amino]-3-methylbutanoyl}-4-methylpyrrolidin-2-yl]-1H-imidazol-5-yl}-1,11-dihydroisochromeno[4′,3′:6,7]naphtho[1,2-d]imidazol-2-yl)-5-methylpyrrolidin-1-yl]-3-methyl-1-oxobutan-2-yl}carbamate]	< 1	0.005				< 1	0.071	< 1	0.004	< 1		< 1	0.016	< 1	0.043	0.551	0.065
COC(=O)N[C@H](C(=O)N1[C@@H](C)CC[C@H]1c1nc2ccc3cc4c(cc3c2[nH]1)OCc1cc(-c2cnc([C@@H]3C[C@H](C)CN3C(=O)[C@@H](NC(=O)OC)[C@@H](C)OC)[nH]2)ccc1-4)C(C)C [Example QH, Methyl {(2S)-1-[(2S,5S)-2-(9-{2-[(2S,4S)-1-{(2S,3R)-3-methoxy-2-[(methoxycarbonyl)amino]butanoyl}-4-methylpyrrolidin-2-yl]-1H-imidazol-5-yl}-1,11-dihydroisochromeno[4′,3′:6,7]naphtho[1,2-d]imidazol-2-yl)-5-methylpyrrolidin-1-yl]-3-methyl-1-oxobutan-2-yl}carbamate]	< 1	0.007				< 1	0.051	< 1	0.005	< 1		< 1	0.02	< 1	0.049	0.182	0.051
